Consider 24 compounds from ChEMBL document CHEMBL1143190, “Synthesis and structure-activity relationships of soluble 8-substituted 4-(2-chlorophenyl)-9-hydroxypyrrolo[3,4-c]carbazole-1,3(2H,6H)-diones as inhibitors of the Wee1 and Chk1 checkpoint kinases” (Bioorg Med Chem Lett, 2008).

One series deals with Wee1-like protein kinase (Homo sapiens, UniProt P30291).
Series [1] can be described thus: physchem.
Description: Dissociation constant, pKa of the compound
Series [2] deals with HT-29. The series can be described thus: cells. Type of series: cell-based. Particulars: Homo sapiens.
Description: Inhibition of human Cdc2/cyclin B-mediated histone H1 kinase phosphorylation in HT29 cells
In series [3] the target is Cyclin-dependent kinase 1 (Homo sapiens, UniProt P06493). Type of series: cell-based. The following applies: ht-29.
Sequence of Cyclin-dependent kinase 1 (P06493 whole entry): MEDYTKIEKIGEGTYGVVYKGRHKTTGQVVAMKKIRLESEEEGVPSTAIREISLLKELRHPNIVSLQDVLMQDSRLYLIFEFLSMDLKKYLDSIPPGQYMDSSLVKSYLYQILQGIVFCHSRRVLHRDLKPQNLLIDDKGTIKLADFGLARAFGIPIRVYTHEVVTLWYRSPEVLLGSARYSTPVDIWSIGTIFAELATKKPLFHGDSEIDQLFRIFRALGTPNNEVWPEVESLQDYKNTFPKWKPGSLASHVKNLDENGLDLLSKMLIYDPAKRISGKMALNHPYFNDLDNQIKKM
Description: Inhibition of human Cdc2 kinase PY15 phosphorylation in HT29 cells by Western blot
In series [4] the test system is HT-29. The series can be described thus: cells. Type of series: functional, cell-based. The following applies: Homo sapiens, HT-29, 72 h.
Description: Cytotoxicity against human HT29 cells after 72 hrs
Series [5] can be described thus: physchem. The following applies: buffer.
Description: Aqueous solubility in water
Series [6] concerns the target T1, Serine/threonine-protein kinase Chk1 (Homo sapiens, UniProt O14757).
T1 sequence (O14757 whole entry): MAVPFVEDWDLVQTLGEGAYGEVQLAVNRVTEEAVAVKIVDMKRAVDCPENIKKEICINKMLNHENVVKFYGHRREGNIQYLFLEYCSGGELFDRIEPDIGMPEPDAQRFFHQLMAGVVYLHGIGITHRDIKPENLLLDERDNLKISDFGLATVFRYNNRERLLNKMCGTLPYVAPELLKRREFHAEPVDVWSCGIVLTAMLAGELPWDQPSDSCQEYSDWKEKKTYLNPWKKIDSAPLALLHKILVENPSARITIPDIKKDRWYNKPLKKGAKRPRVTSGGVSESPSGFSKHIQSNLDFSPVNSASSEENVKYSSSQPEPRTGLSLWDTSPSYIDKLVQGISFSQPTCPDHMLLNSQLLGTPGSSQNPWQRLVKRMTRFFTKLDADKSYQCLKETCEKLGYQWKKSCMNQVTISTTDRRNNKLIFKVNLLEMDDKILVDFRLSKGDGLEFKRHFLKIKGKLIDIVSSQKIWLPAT

Sequence of Wee1-like protein kinase (P30291 whole entry): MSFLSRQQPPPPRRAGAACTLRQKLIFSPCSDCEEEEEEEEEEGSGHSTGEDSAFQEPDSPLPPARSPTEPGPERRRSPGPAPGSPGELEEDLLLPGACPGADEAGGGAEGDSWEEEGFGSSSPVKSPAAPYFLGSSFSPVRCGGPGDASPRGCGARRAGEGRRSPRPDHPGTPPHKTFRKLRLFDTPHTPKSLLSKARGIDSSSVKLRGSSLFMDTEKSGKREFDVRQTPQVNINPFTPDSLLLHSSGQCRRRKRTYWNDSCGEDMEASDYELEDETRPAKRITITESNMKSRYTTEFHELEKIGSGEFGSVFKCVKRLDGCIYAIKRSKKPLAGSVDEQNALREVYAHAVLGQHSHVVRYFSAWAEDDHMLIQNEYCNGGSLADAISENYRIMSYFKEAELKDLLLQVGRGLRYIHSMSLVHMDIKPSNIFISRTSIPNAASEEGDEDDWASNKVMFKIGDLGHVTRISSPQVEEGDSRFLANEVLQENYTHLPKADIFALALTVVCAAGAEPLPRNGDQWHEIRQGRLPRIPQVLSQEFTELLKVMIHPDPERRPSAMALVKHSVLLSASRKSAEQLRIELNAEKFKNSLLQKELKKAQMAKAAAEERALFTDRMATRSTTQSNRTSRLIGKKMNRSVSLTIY

On to `Cn1c2cc(SCCCN3CCCC3)c(O)cc2c2c3c(c(-c4ccccc4Cl)cc21)C(=O)NC3=O`, for which, on Wee1-like protein kinase, the IC50 turned out to be 20 nM. The same compound returned a pKa in the series “physchem [1]” of 10.5.

On to `O=C1NC(=O)c2c1c(-c1ccccc1Cl)cc1c2c2cc(O)c(OCCCN3CCOCC3)cc2n1CCO`, for which the values for the IC50 (against Wee1-like protein kinase; in the series with HT-29 [2]; in series [3]) were 15 nM, 530 nM and 250 nM, respectively. The pKa in the series “physchem [1]” was determined as 7.8.

For `CN(C)CCCOc1cc2c(cc1O)c1c3c(c(-c4ccccc4Cl)cc1n2C)C(=O)NC3=O`, the IC50 in series [3] worked out at 10 nM; in the series with HT-29 [4], 230 nM. The compound further displayed a pKa in “physchem [1]” of 9.5.

As for `O=C1NC(=O)c2c1c(-c1ccccc1Cl)cc1c2c2cc(O)c(CCCCN3CCCC3)cc2n1CCO`, on Wee1-like protein kinase, the half-inhibitory concentration (IC50) amounted to 24 nM. The pKa in “physchem [1]” amounted to 10.5.

Turning to `O=C1NC(=O)c2c1c(-c1ccccc1Cl)cc1c2c2cc(O)c(OCCCN3CCCC3)cc2n1CCO`, the IC50 against Wee1-like protein kinase is 24 nM; in the series with HT-29 [2] it was 860 nM; in series [3], 30 nM. This compound came in with a pKa in the series “physchem [1]” of 10.5.

At Wee1-like protein kinase, `Cn1c2cc(OCCCN3CCOCC3)c(O)cc2c2c3c(c(-c4ccccc4Cl)cc21)C(=O)NC3=O` gave an IC50 of 57 nM. In “physchem [1]”, this compound had a pKa of 7.8.

Compound `O=C1NC(=O)c2c1c(-c1ccccc1Cl)cc1c2c2cc(O)ccc2n1CCCO` gave an IC50 in series [3] of 250 nM. Further, the solubility in “physchem [5]” is below 3 µg/mL.

`Cn1c2cc([S+]([O-])CCCN3CCCC3)c(O)cc2c2c3c(c(-c4ccccc4Cl)cc21)C(=O)NC3=O` (configuration not stated): the IC50 against Wee1-like protein kinase was found to be 33 nM; in series [6], 7 nM. This compound also showed a pKa in “physchem [1]” of 10.5.

For the compound `O=C1NC(=O)c2c1c(-c1ccccc1Cl)cc1[nH]c3cc(CCCCN4CCOCC4)c(O)cc3c21`, the IC50 against Wee1-like protein kinase worked out at 37 nM; in the series on HT-29 [2] it was 1230 nM; in series [3], 250 nM. For the same compound, the pKa in “physchem [1]” was 7.8.

Turning to `Cn1c2cc(CCCCN3CCCC3)c(O)cc2c2c3c(c(-c4ccccc4Cl)cc21)C(=O)NC3=O`, the IC50 against Wee1-like protein kinase worked out at 36 nM. This compound also registered a pKa in the series “physchem [1]” of 10.5.

On to `CN(C)CCCCc1cc2[nH]c3cc(-c4ccccc4Cl)c4c(c3c2cc1O)C(=O)NC4=O`, for which the IC50 against Wee1-like protein kinase worked out at 49 nM; in the series on HT-29 [2], 880 nM; in series [3], 250 nM. Moreover, the pKa in “physchem [1]” stood at 9.5.

On Wee1-like protein kinase, `CN(C)CCCCc1cc2c(cc1O)c1c3c(c(-c4ccccc4Cl)cc1n2C)C(=O)NC3=O` returned an IC50 of 34 nM. Moreover, the pKa in “physchem [1]” was found to be 9.5.

The compound `Cn1c2cc(S(=O)(=O)CCCN3CCCC3)c(O)cc2c2c3c(c(-c4ccccc4Cl)cc21)C(=O)NC3=O` had an IC50 on Wee1-like protein kinase of 160 nM. The same compound gave a pKa in “physchem [1]” of 10.5.

Compound `O=C1NC(=O)c2c1c(-c1ccccc1Cl)cc1[nH]c3cc(OCCCN4CCCC4)c(O)cc3c21` returned a 50% inhibitory concentration (IC50) at Wee1-like protein kinase of 35 nM. In “physchem [1]”, this compound came in with a pKa of 10.5.

Turning to `Cn1c2cc(OCCCN3CCCC3)c(O)cc2c2c3c(c(-c4ccccc4Cl)cc21)C(=O)NC3=O`, the IC50 with HT-29 [2] came to 230 nM; in series [3] it was 30 nM; in the series on HT-29 [4], 310 nM. In the series “physchem [1]”, this compound showed a pKa of 10.5.

With `CN(C)CCCOc1cc2c(cc1O)c1c3c(c(-c4ccccc4Cl)cc1n2CCO)C(=O)NC3=O`, the values for the IC50 (against Wee1-like protein kinase; with HT-29 [2]; in series [3]) were 18 nM, 750 nM and 250 nM, respectively. Also, the pKa in “physchem [1]” came out at 9.5.

At Wee1-like protein kinase, `O=C1NC(=O)c2c1c(-c1ccccc1Cl)cc1[nH]c3cc(OCCCN4CCOCC4)c(O)cc3c21` registered an IC50 of 26 nM. In the series “physchem [1]”, this compound yielded a pKa of 7.8.

As to `O=C1NC(=O)c2c1c(-c1ccccc1Cl)cc1[nH]c3cc(CCCCN4CCCC4)c(O)cc3c21`, the IC50 amounted to 50 nM at Wee1-like protein kinase, 780 nM in the series with HT-29 [2] and 200 nM in series [3]. In the series “physchem [1]”, this compound displayed a pKa of 10.5.

Consider `Cn1c2cc(C(=O)NCCN3CCCC3)c(O)cc2c2c3c(c(-c4ccccc4Cl)cc21)C(=O)NC3=O`, for which the pKa in the series “physchem [1]” was found to be 10.5.

In turn, `CN(C)CCCOc1cc2c(cc1O)c1c3c(c(-c4ccccc4Cl)cc1n2C)C(=O)NC3=O.Cl` registered a solubility in “physchem [5]” of 2200 µg/mL.

As to `O=C1NC(=O)c2c1c(-c1ccccc1Cl)cc1c2c2cc(O)c(CCCCN3CCOCC3)cc2n1CCO`, the concentration for half-maximal inhibition (IC50) at Wee1-like protein kinase is 19 nM. The same compound showed a pKa in the series “physchem [1]” of 7.8.

As to `CN(C)CCCOc1cc2[nH]c3cc(-c4ccccc4Cl)c4c(c3c2cc1O)C(=O)NC4=O`, the IC50 on Wee1-like protein kinase stood at 26 nM. Besides, the pKa in “physchem [1]” came to 9.5.

The compound `Cn1c2cc(CCCCN3CCOCC3)c(O)cc2c2c3c(c(-c4ccccc4Cl)cc21)C(=O)NC3=O` showed an IC50 against Wee1-like protein kinase of 30 nM. For the same compound, the pKa in the series “physchem [1]” amounted to 7.8.

With `Cn1c2cc(S(=O)(=O)NCCN3CCCC3)c(O)cc2c2c3c(c(-c4ccccc4Cl)cc21)C(=O)NC3=O`, the IC50 at Wee1-like protein kinase was found to be 46 nM. This compound displayed a pKa in the series “physchem [1]” of 10.5.
